Source: patent publication US20090280160A1, “PHENYLEPHRINE PHARMACEUTICAL FORMULATIONS AND COMPOSITIONS FOR TRANSMUCOSAL ABSORPTION” (Schering-Plough Healthcare Products, Inc., priority 2007, published 2009)
“Also recorded” adds a separate entry of the source.

Legend:
α1b adrenoreceptor = molecular target: T1, α1b adrenoreceptor (Homo sapiens, UniProt P35368); assay: Competition binding, [3H]-prazosin, α1b CHO cell membranes
T1 construct: expressed in transfected cells
T1 sequence (P35368 1-520): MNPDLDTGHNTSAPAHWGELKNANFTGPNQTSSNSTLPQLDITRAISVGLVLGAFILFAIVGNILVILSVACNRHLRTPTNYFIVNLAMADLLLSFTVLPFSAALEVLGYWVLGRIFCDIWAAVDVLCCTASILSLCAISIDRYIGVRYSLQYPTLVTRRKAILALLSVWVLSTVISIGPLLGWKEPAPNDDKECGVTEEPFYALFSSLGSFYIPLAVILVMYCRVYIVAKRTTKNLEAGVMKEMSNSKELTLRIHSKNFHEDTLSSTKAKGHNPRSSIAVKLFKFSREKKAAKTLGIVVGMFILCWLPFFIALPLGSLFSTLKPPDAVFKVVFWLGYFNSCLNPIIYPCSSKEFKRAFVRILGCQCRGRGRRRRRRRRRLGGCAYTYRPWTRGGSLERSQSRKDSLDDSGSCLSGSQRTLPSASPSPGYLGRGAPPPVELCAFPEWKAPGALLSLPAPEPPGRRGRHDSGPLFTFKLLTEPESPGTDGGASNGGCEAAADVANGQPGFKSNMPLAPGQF
Experimental: (§1) The affinity and activity of phenylephrine metabolites were evaluated in human recombinant α1 and α2 adrenoreceptor binding and activity assays. […] Affinity of the metabolites was determined by receptor binding assays. Functional activity of the metabolites was assessed using an [^35S]-GTPγS binding exchange assay for the α2 receptor subtypes and a cell-based calcium flux response for the α1 receptor subtypes.
Competition Binding Assays
Competition binding assays for the α2 adrenoreceptors were performed using 20 μg membrane protein per well in binding buffer (75 mM Tris-HCl pH 7.4, 12.5 mM MgCl2, […] EDTA, 0.2% bovine serum albumin). […] Binding was terminated by rapid filtration through GF/C unifilter plates, presoaked with 0.3% polyethylenimine, with five washes with 0.5 ml cold 50 mM Tris-HCl ph 7.4, using a Packard Filtermate Harvester. After drying, bound radioactivity was determined by liquid scintillation counting (Packard TopCount) with Microscint 20, 50 μl/well. Binding data were analyzed using GraphPad Prism.
(§2) Each metabolite was evaluated in each assay in at least 2 independent experiments and a representative assay of each metabolite/assay combination is shown.

α2a adrenoreceptor = molecular target: T2, α2a adrenoreceptor (Homo sapiens, UniProt P08913); assay: [35S]-GTPγS binding exchange, α2a CHO cell membranes; assay type: biochemical; conditions: for stimulation of [35S]-GTPγS binding, α2a (in words): CHO cell membranes
T2 construct: expressed in transfected cells; host or cells: CHO (Chinese hamster ovary) cells, membranes
T2 sequence (P08913 1-465): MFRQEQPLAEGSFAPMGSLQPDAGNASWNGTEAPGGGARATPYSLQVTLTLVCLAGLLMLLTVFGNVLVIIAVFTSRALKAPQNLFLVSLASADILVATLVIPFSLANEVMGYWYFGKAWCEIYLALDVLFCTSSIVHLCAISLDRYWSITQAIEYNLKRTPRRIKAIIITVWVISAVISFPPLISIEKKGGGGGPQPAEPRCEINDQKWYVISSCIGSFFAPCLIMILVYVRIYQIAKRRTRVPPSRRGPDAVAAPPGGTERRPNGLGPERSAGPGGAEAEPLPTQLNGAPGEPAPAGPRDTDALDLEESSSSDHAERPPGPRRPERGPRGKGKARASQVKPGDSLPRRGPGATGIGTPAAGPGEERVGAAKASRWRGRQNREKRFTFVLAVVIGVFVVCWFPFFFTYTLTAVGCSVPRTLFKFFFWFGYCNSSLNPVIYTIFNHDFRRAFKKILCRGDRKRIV
Experimental: as §1
Plates were counted on a Packard TopCount. The percent increase over basal binding of [^35S]-GTPγS, a measure of efficacy, was calculated as follows: 100×[[mean total sample cpm−basal cpm]÷by basal cpm]. Basal cpm was defined as the mean cpm in the absence of agonist compound minus the mean non-specific binding cpm.
as §2

`CNC[C@H](O)c1cccc(O[C@@H]2O[C@H](C(=O)O)[C@@H](O)[C@H](O)[C@H]2O)c1` [PE glucuronide, (R)-PE glucuronide] was tested, and the “inhibition of 3H-prazosin binding, α1b (in words)” value (α1b adrenoreceptor; CHO cell membranes) was “No appreciable binding; also recorded: no binding affinity; also recorded: pharmacologically inactive”, the “stimulation of [35S]-GTPγS binding, α2a (in words)” value (α2a adrenoreceptor) was “nor did it activate binding; also recorded: pharmacologically inactive” and the “activity in α2a [35S]-GTPγS assay (in words)” value (α2a adrenoreceptor; highest concentration, 100 μM) was “very weak binding”.
In the case of `O=C(O)C(O)c1cccc(O)c1` (centres unmarked) [3-hydroxymandelic acid], the Ki (α1b adrenoreceptor; [3H]-prazosin, read-out: Ki, a1b Binding (class symbol)) is reported as > 100 µM, the “binding / affinity, α1b receptor (in words)” value (α1b adrenoreceptor; concentrations up to 100 μM) is reported as “No appreciable binding; also recorded: no affinity” and the “stimulation of [35S]-GTPγS binding, α2a (in words)” value (α2a adrenoreceptor) is reported as “no activity”. The “agonist activity, α2a [35S]-GTPγS assay (in words)” value (α2a adrenoreceptor; highest concentration evaluated (10 μM)) was “no activity” and the EC50 (α2a adrenoreceptor; read-out: EC50, a2a GTPγS (class symbol)) was > 10 µM.
